Patent US20230346831A1, “METHODS FOR TREATING […] USING LOW DOSE CARBON MONOXIDE” (priority 2020, published 2023)

Key:
Assay type in all cases: cell-based, human
Conditions in all cases: 16 hours
22Rv1 cells [1] = test: in vitro transwell migration assay
From the text: (§1) MDA-MB-231/TGL cell lines was obtained from Dr. Joan Massagué (Minn, et al, J. Clin. Invest., 115:(1), 44-55 (2005)). CM cell line was obtained from Dr. Paolo Pozzilli (S. Kobayashi et al., Oncogenesis 8, 16 (2019)). MCF7 breast cancer cells and 8988T pancreatic cancer cells were infected with viruses carrying thymidine kinase/green fluorescent protein/luciferase fusion reporter (TGL), which was obtained from Drs. Inna Serganova and Ronald Blasberg (V. Ponomarev et al., European journal of nuclear medicine and molecular imaging 31, 740-751 (2004)). GFP-positive MCF7/TGL and […] cells were enriched by fluorescence-activated cell sorting. H1975, lung adenocarcinoma cell line, was obtained from ATCC (Manassas, VA). MCF7/TGL/pQ and MCF7/TGL/HA-Bcl-xL cell lines were generated by infecting MCF7/TGL cells with viruses carrying pQXCIP or pQXCIP-HA-Bcl-xL, and selected in the medium containing 0.5-1 µg/ml puromycin. Human CYP1B1cDNA (GeneScript) was transiently transfected into MCF7/TGL, MDA-MB-231/TGL, and 8988T/TGL with Lipofectamine 3000 according to the manufacture’s protocol (Invitrogen, Carlsbad, CA). Cells were treated with CO at 250 ppm for 16 hours. Control air condition was a regular cell culture incubator with 5% CO2. Cells were also treated with 30 µM Hemin (HY-19424, MedChemExpress, Monmouth Junction, NJ) in standard tissue culture incubator or 250 ppm CO.
(§2) 6.5 mm Transwell with 8.0 µm Pore Polycarbonate Membrane Insert (Corning, NY, Cat. No. 3422) was used for the cell migration assay (FIG. 1J). After 16 hours of incubation, cells migrated to the opposite side of the upper chambers were fixed with 4% paraformaldehyde, stained with 0.2% crystal violet for 30 min and counted in five fields under × 20 magnification. In parallel, cells were seeded on 24-well plates for proliferation assay. Cells for proliferation control were fixed with 4% paraformaldehyde, stained with 0.2% crystal violet for 30 min and lysed with methanol to release the crystal violet as described by M. Feoktistova, P. Geserick, & M. Leverkus, Cold Spring Harb Protoc 2016, pdb prot087379 (2016). The optical density was measured at 595 nm (OD595). To supplement heme/hemin in the transwell migration assay, 30 µM hemin (MedChemExpress, Monmouth Junction, NJ, Cat. No. HY-19424) was added to both the cell suspension in the upper chambers and the bottom wells.
(§3) To examine whether CO has an effect on tumor cell migration, in vitro transwell migration assays were performed. Various human cancer cell lines, including 3 types of breast cancer (ER^+: MCF7 cells, HER2^+: HCC1954 cells, triple-negative breast cancer (TNBC): MDA-MB-231 cells), pancreatic ductal adenocarcinoma (PDAC) (8988T cells), pancreatic neuroendocrine tumor (PNET) (CM cells), colon cancer (SW480 cells), prostate cancer (22Rv1 cells), liver cancer (HepG2 cells), and lung cancer (H1975 cells) were seeded in the upper chamber of 8-µm porous polycarbonate membranes. Cell migration through the transwell membrane along a serum gradient (Table 1) after 16 hours in the presence or absence of 250 ppm CO were measured.

8988T cells [2] = test: in vitro transwell migration assay
From the text: as §1, §2, §3

CM cells [3] = test: in vitro transwell migration assay
From the text: as §1, §2, §3

H1975 cells [4] = test: in vitro transwell migration assay
From the text: as §1, §2, §3

HCC1954 cells [5] = test: in vitro transwell migration assay
From the text: as §1, §2, §3

HepG2 cells [6] = test: in vitro transwell migration assay
From the text: as §1, §2, §3

MCF7 cells [7] = test: in vitro transwell migration assay
From the text: as §1, §2, §3

SW480 cells [8] = test: in vitro transwell migration assay
From the text: as §1, §2, §3

MDA-MB-231 cells = test: in vitro transwell migration assay
From the text: MDA-MB-231/TGL cell lines was obtained from Dr. Joan Massagué (Minn, et al, J. Clin. Invest., 115:(1), 44-55 (2005)). CM cell line was obtained from Dr. Paolo Pozzilli (S. Kobayashi et al., Oncogenesis 8, 16 (2019)). MCF7 breast cancer cells and 8988T pancreatic cancer cells were infected with viruses carrying thymidine kinase/green fluorescent protein/luciferase fusion reporter (TGL), which was obtained from Drs. Inna Serganova and Ronald Blasberg (V. Ponomarev et al., European journal of nuclear medicine and molecular imaging 31, 740-751 (2004)). GFP-positive MCF7/TGL and 8999T/TGL cells were enriched by fluorescence-activated cell sorting. H1975, lung adenocarcinoma cell line, was obtained from ATCC (Manassas, VA). […]
6.5 mm Transwell with 8.0 µm Pore Polycarbonate Membrane Insert (Corning, NY, Cat. No. 3422) was used for the cell migration assay (FIG. 1J). After 16 hours of incubation, cells migrated to the opposite side of the upper chambers were fixed with 4% paraformaldehyde, stained with 0.2% crystal violet for 30 min and counted in five fields under × 20 magnification. […] The optical density was measured at 595 nm (OD595). […]
To examine whether CO has an effect on tumor cell migration, in vitro transwell migration assays were performed. […] Cell migration through the transwell membrane along a serum gradient (Table 1) after 16 hours in the presence or absence of 250 ppm CO were measured. […]

22Rv1 cells [9] = test: proliferation assay (crystal violet, OD595)
Experimental: (§4) Proliferation of different cancer cells under control air or 250 ppm CO treatment with or without supplement of 30 µM hemin was determined. Indicated cell lines cell lines were seeded in the 24-well plate in normal growth media. 16 hours later, cells were fixed, stained with crystal violet, and lysed by methanol. OD595 were measured from triplicates of each cell type. Error bars represent SEM. *: P < 0.05, two-sided t-test. Scale bar, 100 µm.
as §2, §3

8988T cells [10] = test: proliferation assay (crystal violet, OD595)
Experimental: as §4, §2, §3

CM cells [11] = test: proliferation assay (crystal violet, OD595)
Experimental: as §4, §2, §3

H1975 cells [12] = test: proliferation assay (crystal violet, OD595)
Experimental: as §4, §2, §3

HCC1954 cells [13] = test: proliferation assay (crystal violet, OD595)
Experimental: as §4, §2, §3

HepG2 cells [14] = test: proliferation assay (crystal violet, OD595)
Experimental: as §4, §2, §3

MCF7 cells [15] = test: proliferation assay (crystal violet, OD595)
Experimental: as §4, §2, §3

SW480 cells [16] = test: proliferation assay (crystal violet, OD595)
Experimental: as §4, §2, §3

[17] = 250 ppm CO, serum gradient, vs control air
[18] = 30 µM hemin in upper and lower chambers + 250 ppm CO
[19] = 30 µM hemin, with or without 250 ppm CO

In the case of `[C-]#[O+]` [CO, Carbon monoxide], the “cell migration through the transwell membrane” value (22Rv1 cells [1]; [17]) is reported as “significantly reduced”, the “cell migration through the transwell membrane” value (8988T cells [2]; [17]) is reported as “significantly reduced” and the “cell migration through the transwell membrane” value (CM cells [3]; [17]) is reported as “significantly reduced”. The “cell migration through the transwell membrane” value (H1975 cells [4]; [17]) was “significantly reduced”, the “cell migration through the transwell membrane” value (HCC1954 cells [5]; [17]) was “significantly reduced” and the “cell migration through the transwell membrane” value (HepG2 cells [6]; [17]) was “significantly reduced”. For the same compound, the “cell migration through the transwell membrane” value (MCF7 cells [7]; MCF7 cells, 250 ppm CO, serum gradient, vs control air) was “significantly reduced”, the “cell migration through the transwell membrane” value (SW480 cells [8]; [17]) was “significantly reduced” and the “cell migration through the transwell membrane” value (MDA-MB-231 cells; MDA-MB-231 cells, 250 ppm CO, serum gradient, vs control air) was “significantly reduced”. For the same compound, the cell proliferation (22Rv1 cells [9]; 250 ppm CO, vs control air) was “did not affect”, the cell proliferation (8988T cells [10]; 250 ppm CO, vs control air) was “did not affect” and the cell proliferation (CM cells [11]; 250 ppm CO, vs control air) was “did not affect”. For the same compound, the cell proliferation (H1975 cells [12]; 250 ppm CO, vs control air) was “did not affect”, the cell proliferation (HCC1954 cells [13]; 250 ppm CO, vs control air) was “did not affect” and the cell proliferation (HepG2 cells [14]; 250 ppm CO, vs control air) was “did not affect”. The cell proliferation (MCF7 cells [15]; MCF7 cells, 250 ppm CO, vs control air) was “did not affect” and the cell proliferation (SW480 cells [16]; 250 ppm CO, vs control air) was “did not affect”.
In the case of Hemin [reference compound], the “cell migration inhibited by 250 ppm CO (reversal by hemin)” value (shortened to “cell migration inhibited by 250 ppm CO”) (22Rv1 cells [1]; [18]) is reported as “significantly reversed”, the “cell migration inhibited by 250 ppm CO” value (8988T cells [2]; [18]) is reported as “significantly reversed” and the “cell migration inhibited by 250 ppm CO” value (CM cells [3]; [18]) is reported as “significantly reversed”. For the same compound, the “cell migration inhibited by 250 ppm CO” value (H1975 cells [4]; [18]) was “significantly reversed”, the “cell migration inhibited by 250 ppm CO” value (HCC1954 cells [5]; [18]) was “significantly reversed” and the “cell migration inhibited by 250 ppm CO” value (HepG2 cells [6]; [18]) was “significantly reversed”. For the same compound, the “cell migration inhibited by 250 ppm CO” value (MCF7 cells [7]; MCF7/TGL cells, 30 µM hemin in upper and lower chambers + 250 ppm CO) was “significantly reversed”, the “cell migration inhibited by 250 ppm CO” value (SW480 cells [8]; [18]) was “significantly reversed” and the “cell migration inhibited by 250 ppm CO” value (MDA-MB-231 cells; MDA-MB-231/TGL cells, 30 µM hemin in upper and lower chambers + 250 ppm CO) was “significantly reversed”. For the same compound, the “cancer cell proliferation with hemin supplement” value (from here on “cancer cell proliferation”) (22Rv1 cells [9]; [19]) was “did not alter”, the “cancer cell proliferation” value (8988T cells [10]; [19]) was “did not alter” and the “cancer cell proliferation” value (CM cells [11]; [19]) was “did not alter”. For the same compound, the “cancer cell proliferation” value (H1975 cells [12]; [19]) was “did not alter”, the “cancer cell proliferation” value (HCC1954 cells [13]; [19]) was “did not alter” and the “cancer cell proliferation” value (HepG2 cells [14]; [19]) was “did not alter”. For the same compound, the “cancer cell proliferation” value (MCF7 cells [15]; MCF7/TGL cells, 30 µM hemin, with or without 250 ppm CO) was “did not alter” and the “cancer cell proliferation” value (SW480 cells [16]; [19]) was “did not alter”.
